One assay has as its target Mcl-1 protein (Homo sapiens, UniProt Q07820). Put plainly: Inhibition of Mcl-1 by the fluorescence polarisation technique. The format is binding. The following applies: fluorescence polarisation test; read-out: IC50 (M) Mcl-LFP. As to the method: The relative, binding potency of each compound was determined via Fluorescence Polarisation (FP). The method utilised a Fluorescein labelled ligand (Fluorescein-βAla-Ahx-A-REIGAQLRRMADDLNAQY-OH; mw 2,765) which binds to the Mcl-1 protein (such that Mcl-1 corresponds to the UniProtKB® primary accession number: Q07820) leading to an increased anisotropy measured in milli-polarisation (mP) units using a reader. The addition of a compound which binds competitively to the same site as the ligand will result in a greater proportion of unbound ligand in the system indicated by a decrease in mP units.
An 11 point serial dilution of each compound was prepared in DMSO and 2 μl transferred into flat bottomed, low binding, 384-well plate (final DMSO concentration 5%), 38 μl of buffer (10 mM 4-(2-hydroxyethyl)-1-piperazineethanesolfonic acid [HEPES], 150 mM NaCl, 0.05% Tween 20, pH 7.4), containing the Fluorescein labelled ligand (final concentration 1 nM) and Mcl-1 protein (final concentration 5 nM) was then added.
Assay plates were incubated ˜2 hours at room temperature before FP was measured on a […] Synergy2 reader (Ex. 528 nm, Em. 640 nm, Cut off 510 nm) and mP units calculated. The binding of increasing doses of test compound was expressed as a percentage reduction in mP compared to a window established between ‘5% DMSO only’ and ‘100% inhibition’ controls. 11-point dose response curves were plotted with XL-Fit software using a 4-Parameter Logistic Model (Sigmoidal Dose-Response Model) and the inhibitory concentrations that gave a 50% reduction in mP (IC50) were determined.
On the technique in general: Polarisation of emitted light reports the rotation of a fluorescent probe.

The subject of assay [1] is H929 multiple myeloma tumour line. The assay can be described thus: In vitro cytotoxicity (MTT). The conditions noted are these: 48 hours exposure. The format is cell-based. As to the method:
The cytotoxicity studies were carried out on the H929 multiple myeloma tumour line.
The cells are distributed onto microplates and exposed to the test compound for 48 hours.
The cell viability is then quantified by a colorimetric assay, the Microculture Tetrazolium Assay (Carmichael et al. Cancer Res. 1987, 47, 936-942).

[2] abbreviates: Homo sapiens, NCI-H929, H929 cells.

Counter-ions that a name gives are not always drawn.

Experimental findings from patent US10457689B2, “Ammonium derivatives, a process for their preparation and pharmaceutical compositions containing them” (LES LABORATOIRES SERVIER, priority 2016, dated 2019) are described below.

Chain of Mcl-1 protein (Q07820 whole entry): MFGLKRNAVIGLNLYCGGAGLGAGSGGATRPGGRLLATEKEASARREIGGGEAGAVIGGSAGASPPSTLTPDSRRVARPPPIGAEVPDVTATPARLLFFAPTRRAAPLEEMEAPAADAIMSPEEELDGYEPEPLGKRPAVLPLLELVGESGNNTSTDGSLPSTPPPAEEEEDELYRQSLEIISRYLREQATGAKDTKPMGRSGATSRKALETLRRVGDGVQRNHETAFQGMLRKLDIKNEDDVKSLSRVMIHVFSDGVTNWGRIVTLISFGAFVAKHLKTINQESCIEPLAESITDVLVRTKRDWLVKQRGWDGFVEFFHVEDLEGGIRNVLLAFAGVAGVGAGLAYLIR

Turning to “4-[2-(4-{(5Sa)-4-[(1R)-1-carboxy-2-(2-{[2-(2-methoxyphenyl)pyrimidin-4-yl]methoxy}phenyl)ethoxy]-6-(4-fluorophenyl)thieno[2,3-d]pyrimidin-5-yl}-2-chloro-3-methylphenoxy)ethyl]-1-{[(diethylcarbamoyl)oxy]methyl}-1-methylpiperazin-1-ium trifluoroacetate [Example 19]”, the IC50 came out at 1.2e-09 M on Mcl-1 protein and 1640 nM in assay [1] (H929 cells).
In the case of `COc1ccccc1-c1nccc(COc2ccccc2CC(Oc2ncnc3sc(-c4ccc(F)cc4)c(-c4ccc(OCCN5CC[N+](C)(COP(=O)([O-])OCc6ccccc6)CC5)c(Cl)c4C)c23)C(=O)O)n1` [Example 2, benzyl {4-[2-(4-{(5Sa)-4-[(1R)-1-carboxy-2-(2-{[2-(2-methoxyphenyl)pyrimidin-4-yl]methoxy}phenyl)ethoxy]-6-(4-fluorophenyl)thieno[2,3-d]pyrimidin-5-yl}-2-chloro-3-methylphenoxy)ethyl]-1-methylpiperazin-1-ium-1-yl}methyl phosphate], the IC50 worked out at 9.48e-10 M at Mcl-1 protein and 10.9 nM in assay [1] (setting [2]).
Consider `COc1ccccc1-c1nccc(COc2ccccc2CC(Oc2ncnc3sc(-c4ccc(F)cc4)c(-c4ccc(OCCN5CC[N+](C)(COP(=O)([O-])O)CC5)c(Cl)c4Br)c23)C(=O)O)n1` [Example 5, {4-[2-(3-bromo-4-{(5Sa)-4-[(1R)-1-carboxy-2-(2-{[2-(2-methoxyphenyl)pyrimidin-4-yl]methoxy}phenyl)ethoxy]-6-(4-fluorophenyl)thieno[2,3-d]pyrimidin-5-yl}-2-chlorophenoxy)ethyl]-1-methylpiperazin-1-ium-1-yl}methyl hydrogen phosphate], for which the results for the IC50 (on Mcl-1 protein; in assay [1] (setting [2])) were 1.06e-09 M and 55.4 nM, respectively.
For `COc1ccccc1-c1nccc(COc2ccccc2CC(Nc2ncnc3sc(-c4ccc(F)cc4)c(-c4ccc(OCCN5CC[N+](C)(COP(=O)([O-])O)CC5)c(Cl)c4C)c23)C(=O)O)n1` [Example 8, N-[(5Sa)-5-{3-chloro-4-[2-(4-{[(hydroxyphosphinato)oxy]methyl}-4-methylpiperazin-4-ium-1-yl)ethoxy]-2-methylphenyl}-6-(4-fluorophenyl)thieno[2,3-d]pyrimidin-4-yl]-2-{[2-(2-methoxyphenyl)pyrimidin-4-yl]methoxy}-D-phenylalanine], in that order: 9.48e-10 M and 229 nM.
In the case of `COc1ccccc1-c1nccc(COc2ccccc2CC(Oc2ncnc3sc(-c4ccc(F)cc4)c(-c4ccc(OCCN5CC[N+](C)(COC(C)=O)CC5)c(Cl)c4C)c23)C(=O)O)n1` [Example 17, 1-[(acetyloxy)methyl]-4-[2-(4-{(5Sa)-4-[(1R)-1-carboxy-2-(2-{[2-(2-methoxyphenyl)pyrimidin-4-yl]methoxy}phenyl)ethoxy]-6-(4-fluorophenyl)thieno[2,3-d]pyrimidin-5-yl}-2-chloro-3-methylphenoxy)ethyl]-1-methylpiperazin-1-ium trifluoroacetate], the 50% inhibitory concentration (IC50) on Mcl-1 protein turned out to be 1.12e-09 M; in assay [1] (H929 cells), 2.15 nM.
In the case of `CCOC(=O)OC[N+]1(C)CCN(CCOc2ccc(-c3c(-c4ccc(F)cc4)sc4ncnc(OC(Cc5ccccc5OCc5ccnc(-c6ccccc6OC)n5)C(=O)O)c34)c(C)c2Cl)CC1` [Example 18, 4-[2-(4-{(5Sa)-4-[(1R)-1-carboxy-2-(2-{[2-(2-methoxyphenyl)pyrimidin-4-yl]methoxy}phenyl)ethoxy]-6-(4-fluorophenyl)thieno[2,3-d]pyrimidin-5-yl}-2-chloro-3-methylphenoxy)ethyl]-1-{[(ethoxycarbonyl)oxy]methyl}-1-methylpiperazin-1-ium], the IC50 at Mcl-1 protein is 9.48e-10 M; in assay [1] (setting [2]), 1.74 nM.
With `CCN(CC)C(=O)OC(C)[N+]1(C)CCN(CCOc2ccc(-c3c(-c4ccc(F)cc4)sc4ncnc(O[C@H](Cc5ccccc5OCc5ccnc(-c6ccccc6OC)n5)C(=O)O)c34)c(C)c2Cl)CC1` (stereo partly drawn) [Example 21, 4-[2-(4-{(5Sa)-4-[(1R)-1-carboxy-2-(2-{[2-(2-methoxyphenyl)pyrimidin-4-yl]methoxy}phenyl)ethoxy]-6-(4-fluorophenyl)thieno[2,3-d]pyrimidin-5-yl}-2-chloro-3-methylphenoxy)ethyl]-1-{1-[(diethylcarbamoyl)oxy]ethyl}-1-methylpiperazin-1-ium trifluoroacetate], the IC50 on Mcl-1 protein came out at 1.96e-09 M; in assay [1] (H929 cells), 70.4 nM.
The like results for `COc1ccccc1-c1nccc(COc2ccccc2CC(Oc2ncnc3sc(-c4ccc(F)cc4)c(-c4ccc(OCCN5CC[N+](C)(Cc6oc(=O)oc6C)CC5)c(Cl)c4C)c23)C(=O)O)n1` [Example 22, 4-[2-(4-{(5Sa)-4-[(1R)-1-carboxy-2-(2-{[2-(2-methoxyphenyl)pyrimidin-4-yl]methoxy}phenyl)ethoxy]-6-(4-fluorophenyl)thieno[2,3-d]pyrimidin-5-yl}-2-chloro-3-methylphenoxy)ethyl]-1-methyl-1-[(5-methyl-2-oxo-1,3-dioxol-4-yl)methyl]piperazin-1-ium trifluoroacetate] were, in that order, 9.48e-10 M and 2.23 nM.
For the compound `COc1ccccc1-c1nccc(COc2ccccc2CC(Oc2ncnc3sc(-c4ccc(F)cc4)c(-c4ccc(OCCN5CC[N+](C)(COC(=O)C(C)(C)C)CC5)c(Cl)c4C)c23)C(=O)O)n1` [Example 24, 4-[2-(4-{(5Sa)-4-[(1R)-1-carboxy-2-(2-{[2-(2-methoxyphenyl)pyrimidin-4-yl]methoxy}phenyl)ethoxy]-6-(4-fluorophenyl)thieno[2,3-d]pyrimidin-5-yl}-2-chloro-3-methylphenoxy)ethyl]-1-{[(2,2-dimethylpropanoyl)oxy]methyl}-1-methylpiperazin-1-ium trifluoroacetate], the IC50 at Mcl-1 protein turned out to be 1.04e-09 M; in assay [1] (H929 cells) it was 2.52 nM.
The like results for `COc1ccccc1-c1nccc(COc2ccccc2CC(Oc2ncnc3sc(-c4ccc(F)cc4)c(-c4ccc(OCCN5CC[N+](C)(COC(C)=O)CC5)c(Cl)c4Br)c23)C(=O)O)n1` [Example 25, 1-[(acetyloxy)methyl]-4-[2-(3-bromo-4-{(5Sa)-4-[(1R)-1-carboxy-2-(2-{[2-(2-methoxyphenyl)pyrimidin-4-yl]methoxy}phenyl)ethoxy]-6-(4-fluorophenyl)thieno[2,3-d]pyrimidin-5-yl}-2-chlorophenoxy)ethyl]-1-methylpiperazin-1-ium trifluoroacetate] were, in that order, 1.07e-09 M and 1.95 nM.
For `CCOC(=O)OC[N+]1(C)CCN(CCOc2ccc(-c3c(-c4ccc(F)cc4)sc4ncnc(OC(Cc5ccccc5OCc5ccnc(-c6ccccc6OC)n5)C(=O)O)c34)c(Br)c2Cl)CC1` [Example 26, 4-[2-(3-bromo-4-{(5Sa)-4-[(1R)-1-carboxy-2-(2-{[2-(2-methoxyphenyl)pyrimidin-4-yl]methoxy}phenyl)ethoxy]-6-(4-fluorophenyl)thieno[2,3-d]pyrimidin-5-yl}-2-chlorophenoxy)ethyl]-1-{[(ethoxycarbonyl)oxy]methyl}-1-methylpiperazin-1-ium trifluoroacetate], in that order: 9.48e-10 M and 2.29 nM.

Broadly, the IC50 is the midpoint of a concentration-inhibition curve.
